Paper PMC201021 (Malaria Journal, 2003)
“Also recorded” adds a separate entry of the source.

What was measured:
[1] = test system: haematin dimerization to β-haematin; assay: β-Haematin Inhibitory Activity; format: biochemical; settings: 10 fold molar excess of drug
[2] = test system: haematin dimerization to β-haematin; settings: cited from earlier work

SMILES	inhibition of the BHIA haematin dimerization reaction (in words) [1]	inhibition of the BHIA haematin dimerization reaction (in words) ([1]; listed as PM)	inhibition of spontaneous haematin dimerization to β-haematin in vitro [2]
C=C[C@H]1C[N@@]2CC[C@H]1C[C@@H]2[C@@H](O)c1ccnc2ccccc12 [C, cinchonine]	activity; also recorded: inhibited		
C=C[C@H]1CN2CC[C@H]1C[C@H]2[C@H](O)c1ccnc2ccccc12 [CD, cinchonidine]	activity; also recorded: inhibited		
CCN(CC)CCCC(C)Nc1ccnc2cc(Cl)ccc12 (centres unmarked) [CQ, chloroquine]	inhibited		
CC[C@H]1CN2CC[C@H]1C[C@H]2[C@H](O)c1ccnc2ccc(OC)cc12 [HQ, hydroquinine]	activity; also recorded: inhibited		
CC[C@H]1CN2CC[C@H]1C[C@@H]2[C@@H](O)c1ccnc2ccc(OC)cc12 [HQD, hydroquinidine]	activity; also recorded: inhibited		
CC(CN1c2ccccc2Sc2ccccc21)N(C)C (centres unmarked) [PMZ, promethazine]	Significant inhibition was not seen	no significant interaction	
C=C[C@H]1CN2CC[C@H]1C[C@@H]2C(O)c1ccnc2ccc(OC)cc12 (some centres unmarked) [Q, 6'-methoxy cinchonan-9-ol]	activity; also recorded: inhibited		inhibits
C=C[C@H]1C[N@@]2CC[C@H]1C[C@@H]2[C@@H](O)c1ccnc2ccc(OC)cc12 [QD, quinidine]	activity; also recorded: inhibited		
COc1ccc(CCN(C)CCCC(C#N)(c2ccc(OC)c(OC)c2)C(C)C)cc1OC (centres unmarked) [VE, Verapamil]	Significant inhibition was not seen; also recorded: no significant interaction		
